Key:
[1] = target: T1, Transient receptor potential cation channel subfamily V member 1 (Homo sapiens, UniProt Q8NER1); test: Inhibition of capsaicin-induced calcium uptake by transient receptor potential vanilloid type 1 expressed in CHO cells; assay type: functional, cell-based
[2] = target: T1, Transient receptor potential cation channel subfamily V member 1; test: Inhibition of pH-induced calcium uptake by transient receptor potential vanilloid type 1 expressed in CHO cells; assay type: functional, cell-based
[3] = Steady state volume of distribution in rat after intravenous administration of 2 mg/kg; assay type: ADME, organism-based; parameters: dose 2 mg/kg, route intravenous; settings: in vivo, read-out: Vss
[4] = Oral bioavailability in rat (dose 5 mg/kg); assay type: ADME, organism-based; settings: in vivo
[5] = Peak plasma concentration in rat after oral administration of 5 mg/kg; assay type: ADME, organism-based; parameters: dose 5 mg/kg, route oral
[6] = Maximum time required to attain Cmax in rat after oral administration of 5 mg/kg; assay type: ADME, organism-based; parameters: dose 5 mg/kg, route oral; settings: in vivo
[7] = Area under concentration time curve from time 0 to infinity was determined in rat after oral administration of 5 mg/kg; assay type: ADME, organism-based; parameters: time infinity, dose 5 mg/kg, route oral; settings: in vivo
[8] = Area under concentration time curve from time 0 to infinity was determined in rat after intravenous administration of 2 mg/kg; assay type: ADME, organism-based; parameters: time infinity, dose 2 mg/kg, route intravenous; settings: in vivo
[9] = Half life in rat after intravenous administration of 2 mg/kg; assay type: ADME, organism-based; parameters: dose 2 mg/kg, route intravenous; settings: in vivo
[10] = Plasma clearance in rat after intravenous administration of 2 mg/kg; assay type: ADME, organism-based; parameters: dose 2 mg/kg, route intravenous

T1 sequence (Q8NER1 whole entry): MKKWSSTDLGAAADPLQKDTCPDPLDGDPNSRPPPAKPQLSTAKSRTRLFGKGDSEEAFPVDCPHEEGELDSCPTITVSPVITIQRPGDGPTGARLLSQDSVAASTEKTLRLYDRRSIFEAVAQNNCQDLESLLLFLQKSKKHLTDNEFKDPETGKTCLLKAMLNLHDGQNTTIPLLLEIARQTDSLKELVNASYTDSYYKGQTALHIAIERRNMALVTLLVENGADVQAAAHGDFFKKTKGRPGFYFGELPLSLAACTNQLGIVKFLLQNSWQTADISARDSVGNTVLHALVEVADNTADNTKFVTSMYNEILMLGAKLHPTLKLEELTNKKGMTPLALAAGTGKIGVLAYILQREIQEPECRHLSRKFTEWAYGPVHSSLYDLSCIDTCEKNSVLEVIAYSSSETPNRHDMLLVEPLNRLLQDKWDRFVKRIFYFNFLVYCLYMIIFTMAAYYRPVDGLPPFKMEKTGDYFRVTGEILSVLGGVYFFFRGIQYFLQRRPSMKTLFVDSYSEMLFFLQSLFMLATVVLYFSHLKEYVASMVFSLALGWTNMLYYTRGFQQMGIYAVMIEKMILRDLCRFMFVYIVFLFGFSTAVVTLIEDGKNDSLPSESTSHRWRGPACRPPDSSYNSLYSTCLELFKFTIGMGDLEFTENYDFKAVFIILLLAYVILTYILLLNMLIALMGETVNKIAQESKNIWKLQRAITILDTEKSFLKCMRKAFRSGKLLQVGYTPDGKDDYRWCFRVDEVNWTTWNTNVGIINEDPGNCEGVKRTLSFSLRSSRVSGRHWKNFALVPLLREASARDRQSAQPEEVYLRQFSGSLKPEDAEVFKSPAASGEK

| SMILES | IC50 [1] [nM] | IC50 [2] [nM] | also measured |
| --- | --- | --- | --- |
| CC(C)(C)c1ccc(/C=C/C(=O)Nc2ccc3c(c2)CCCC3)cc1 | 61 | 960 | – |
| O=C(/C=C/c1ccc(C(F)(F)F)nc1N1CCCCC1)Nc1ccc2cccnc2c1 | 0.42 | 1 | Vd [3]: 2.8 L/kg; F [4]: 17%; Cmax [5]: 320 ng/mL; Tmax [6]: 2 h; AUC [7]: 2400 ng·h/mL; AUC [8]: 2100 ng·h/mL; half-life [9]: 2.9 h; CL ([10]; in vivo): 13 mL/min/kg |
| O=C(/C=C/c1ccc([N+](=O)[O-])cc1)Nc1ccc2c(c1)OCCO2 | 190 | 440 | – |
| O=C(/C=C/c1ccc(C(F)(F)F)nc1N1CCOCC1)Nc1ccc2cccnc2c1 | 1.9 | 1.3 | Vd [3]: 1.1 L/kg; bioavailability [4]: 39%; Cmax [5]: 540 ng/mL; Tmax [6]: 1.5 h; AUC(0-inf) [7]: 2600 ng·h/mL; AUC [8]: 2300 ng·h/mL; half-life [9]: 0.9 h; clearance ([10]; plasma): 15 mL/min/kg |
| CC(C)(C)c1ccc(/C=C/C(=O)Nc2ccc3c(c2)NC(=O)CO3)cc1 | 6.5 | > 4000 | – |
| O=C(/C=C/c1ccc(O)cc1)Nc1ccc2c(c1)OCCO2 | > 4000 | > 4000 | – |
| CCCCc1ccc(/C=C/C(=O)Nc2ccc3c(c2)OCCO3)cc1 | 360 | 2700 | – |
| CC(C)(C)c1ccc(C(=CC(=O)Nc2ccc3c(c2)OCCO3)c2ccc(C(C)(C)C)cc2)cc1 | 2700 | > 4000 | – |
| CC(C)(C)c1ccc(/C=C/C(=O)Nc2ccc3c(c2)OCC(=O)N3)cc1 | 270 | > 4000 | – |
| CC(C)(C)c1ccc(/C(=C/C(=O)Nc2ccc3c(c2)OCCO3)c2ccncc2)cc1 | 44 | 660 | – |
| CC(C)(C)c1ccc(C2CC2C(=O)Nc2ccc3c(c2)OCCO3)cc1 (stereo not drawn) | 1800 | > 4000 | – |
| CC(C)Cc1ccc(/C=C/C(=O)Nc2ccc3c(c2)OCCO3)cc1 | 360 | 860 | – |
| Cc1nc(C(F)(F)F)ccc1/C=C/C(=O)Nc1ccc2c(c1)OCCO2 | 360 | 870 | – |
| Cc1ccc(/C=C/C(=O)Nc2ccc3c(c2)OCCO3)cc1 | 210 | 1100 | – |
| CCc1ccc(/C=C/C(=O)Nc2ccc3c(c2)OCCO3)cc1 | 170 | 220 | – |
| CC(C)(C)c1ccc(/C(=C/C(=O)Nc2ccc3c(c2)OCCO3)CCC(=O)O)cc1 | > 4000 | > 4000 | – |
| O=C(/C=C/c1ccc(Cl)cc1)Nc1ccc2c(c1)OCCO2 | 250 | 320 | – |
| CC(C)(C)c1ccc(CCC(=O)Nc2ccc3c(c2)OCCO3)cc1 | 150 | 660 | – |
| CC(C)C/C(=C\C(=O)Nc1ccc2c(c1)OCCO2)c1ccc(C(C)(C)C)cc1 | 16 | 94 | – |
| O=C(/C=C/c1ccc(F)cc1)Nc1ccc2c(c1)OCCO2 | 1000 | > 4000 | – |
| O=C(/C=C/c1ccc(Br)cc1)Nc1ccc2c(c1)OCCO2 | 110 | 370 | – |

| SMILES | IC50 [1] [nM] | IC50 [2] [nM] | also measured |
| --- | --- | --- | --- |
| CC(C)(C)c1ccc(/C=C/C(=O)Oc2ccc3c(c2)OCCO3)cc1 | – | 3200 | – |
| CC(C)(C)c1cccc(/C=C/C(=O)Nc2ccc3c(c2)OCCO3)c1 | 620 | > 4000 | – |
| O=C(/C=C/c1ccccc1)Nc1ccc2c(c1)OCCO2 | > 4000 | > 4000 | – |
| CC(C)(C)c1ccc(/C(=C/C(=O)Nc2ccc3c(c2)OCCO3)c2ccccc2)cc1 | 20 | 120 | – |
| CC/C(=C\c1ccc(C(C)(C)C)cc1)C(=O)Nc1ccc2c(c1)OCCO2 | 210 | 800 | – |
| CC(C)(C)c1ccc(/C=C/C(=O)Nc2ccc3c(c2)OCCO3)nc1 | 500 | 2900 | – |
| COc1ccccc1NC(=O)/C=C/c1ccc(C(C)(C)C)cc1 | 550 | > 4000 | – |
| CC(C)(C)c1ccc(/C(=C/C(=O)Nc2ccc3c(c2)OCCO3)c2cccnc2)cc1 | 78 | 510 | – |
| CN(C)CCC/C(=C\C(=O)Nc1ccc2c(c1)OCCO2)c1ccc(C(C)(C)C)cc1 | 3900 | > 4000 | – |
| O=C(/C=C/c1ccc(C(F)(F)F)nc1)Nc1ccc2c(c1)OCCO2 | 870 | 1290 | – |
| COc1cccc(NC(=O)/C=C/c2ccc(C(C)(C)C)cc2)c1 | 21 | > 4000 | – |
| CC(C)(C)c1ccc(/C=C/C(=O)Nc2ccc3c(c2)OCCO3)c(C(=O)O)c1 | > 4000 | > 4000 | – |
| CC(C)(C)c1ccc(/C=C/C(=O)Nc2ccc3cccnc3c2)cc1 | – | 2.02 | – |
| COc1ccc(NC(=O)/C=C/c2ccc(C(C)(C)C)cc2)cc1 | 140 | > 4000 | – |
| COc1ccc(/C=C/C(=O)Nc2ccc3c(c2)OCCO3)cc1 | 1800 | > 4000 | – |
| O=C(/C=C/c1ccc(C(F)(F)F)nc1N1CCCCC1)Nc1ccc2c(c1)OCCO2 | 27 | 54 | – |
| CC(C)(C)c1ccc(/C=C/C(=O)Nc2ccc3c(c2)NCCC3)cc1 | 36 | 160 | – |
| CC(C)(C)c1ccc(/C=C/C(=O)Nc2ccc3c(c2)OCCO3)c(Br)c1 | 60 | 470 | – |
| CC(C)(C)c1ccc(/C=C/C(=O)Nc2ccc3c(c2)NC(=O)CC3)cc1 | – | 71 | – |
| CC(C)(C)c1ccc(/C(=C/C(=O)Nc2ccc3c(c2)OCCO3)Cc2ccccc2)cc1 | 14 | 110 | – |
| COc1ccc(NC(=O)/C=C/c2ccc(C(C)(C)C)cc2)cc1OC | 170 | > 4000 | – |

| SMILES | IC50 [1] [nM] | IC50 [2] [nM] | also measured |
| --- | --- | --- | --- |
| CCOC(=O)c1cc(C(C)(C)C)ccc1/C=C/C(=O)Nc1ccc2c(c1)OCCO2 | 15 | 26 | – |
| CC(C)(C)c1ccc(/C=C/C(=S)Nc2ccc3c(c2)OCCO3)cc1 | 280 | 1400 | – |
| CN(C(=O)/C=C/c1ccc(C(C)(C)C)cc1)c1ccc2c(c1)OCCO2 | > 4000 | > 4000 | – |
| CC(C)(C)c1ccc(/C=C/CNc2ccc3c(c2)OCCO3)cc1 | > 4000 | > 4000 | – |
| C/C(=C\C(=O)Nc1ccc2c(c1)OCCO2)c1ccc(C(C)(C)C)cc1 | – | 430 | – |
| COc1ccc(NC(=O)/C=C/c2ccc(C(C)(C)C)cc2)cc1O | – | > 4000 | – |
| CC(C)(C)c1ccc(/C=C/C(=O)Nc2ccc3c(c2)OCO3)cc1 | 570 | > 4000 | – |
| CC(C)(C)c1ccc(/C=C/C(=O)Nc2ccc3c(c2)NCCO3)cc1 | 110 | > 4000 | – |
| CC(C)(C)c1ccc(/C=C/C(=O)Nc2ccc3c(c2)OCCO3)cn1 | 100 | 2400 | – |
| O=C(/C=C/c1ccc(-c2ccccc2)cc1)Nc1ccc2c(c1)OCCO2 | > 4000 | > 4000 | – |
| O=C(/C=C/c1ccc(C(F)(F)F)cc1)Nc1ccc2c(c1)OCCO2 | 46 | 100 | – |
| CC(C)(C)c1ccc(/C=C/C(=O)Nc2ccc3c(c2)OCCN3)cc1 | 16 | 57 | – |
| CC(C)(C)c1ccc(/C(=C/C(=O)Nc2ccc3c(c2)OCCO3)c2ccc(C(F)(F)F)cc2)cc1 | 25 | 180 | – |
| CC(C)(C)c1ccc(/C=C(/C(=O)Nc2ccc3c(c2)OCCO3)c2ccccc2)cc1 | > 4000 | > 4000 | – |
| C/C(=C\c1ccc(C(C)(C)C)cc1)C(=O)Nc1ccc2c(c1)OCCO2 | – | 600 | – |
| CCOC(=O)CC/C(=C\C(=O)Nc1ccc2c(c1)OCCO2)c1ccc(C(C)(C)C)cc1 | 36 | 290 | – |
| CC(C)(C)c1ccc(/C=C/C(=O)Nc2ccccc2)cc1 | – | > 4000 | – |
| CC(C)c1ccc(/C=C/C(=O)Nc2ccc3c(c2)OCCO3)cc1 | 55 | 82 | – |
| O=C(/C=C/c1ccc(C(F)(F)F)nc1N1CCOCC1)Nc1ccc2c(c1)OCCO2 | 15 | 40 | – |
| CC(C)(C)c1ccc(/C=C/C(=O)Nc2ccc3c(c2)OCCO3)cc1 (stereo in doubt; 34) | – | 3200 | – |
| Oc1cc2c(cc1O)CN(C(=S)NCCc1ccc(Cl)cc1)CCC2 [CAPSAZEPINE] | 420 | – | – |
